Experimental data reported in patent publication US20250176550A1, “HERBICIDE COMPOSITION OF URACIL COMPOUND CONTAINING CARBOXYLATE FRAGMENT AND THE USE THEREOF” (Jiangsu Flag Chemical Industry Co., Ltd., priority 2022, published 2025).
Read-outs that look alike come from different tables or passages of the source.

How the values were obtained:
Format in all cases: in vivo
digitaria sanguinalis = assay: Indoor virulence and combined effect, greenhouse pot test, pre-emergence soil spray treatment, fresh weight inhibition
Experimental: (§1) The active ingredients A and B are respectively screened and an indoor combined effect of the composition on weeds was evaluated by an indoor test and a field test, to determine a combined effect of the composition on weeds.
(§2) Quantitative seeds of Poaceae weeds (echinochloa crusgalli, Digitaria sanguinalis, setaria viridis, Eleusine indica, avena fatua, alopecurus japonicus, alopecurus aequalis, Lolium multiflorum) and broadleaf weeds (eclipta prostrata, rorippa dubia, Abutilon theophrasti, conyza canadensis, veronica persica, myosoton aquaticum, polygonum lapathifolium, galium aparine var. tenerum, alisma plantago-aquatica, geranium carolinianum) were sown in paper cup containing nutrient soil with a diameter of 7 cm, covered with soil for 1 cm after sowing. After pressing and watering, they were cultured in a greenhouse according to a conventional method. Poaceae weeds grew to 3˜4 leaf stage, broad-leaved weeds grew to 4˜6 leaf stage, spraying treatment to both stem and leaf was performed; and pre-seedling soil spray treatment was performed 24 hours after sowing. Following an experimental design dosage, a WP-2000 walking spray tower (spindle speed 96 mm/r, spray height 200 mm, effective spray amplitude of nozzle 350 mm, nozzle flow rate 390 mL/min, nozzle walking speed 210 mm/s) was used for the spray treatment. The experiment was repeated three times. After being treated, a sample material is placed in an operation hall, and after the drug solution is naturally dried out, the sample material is placed in a greenhouse and managed according to the conventional method. A reaction of weeds to the drug agent is observed and recorded, and a regularly visual check of a control effect of the drug agent on weeds was performed after the treatment.
(§3) All of original drugs were using acetone as a solvent, being diluted with 0.1 wt % emulsifier of Tween-80 aqueous solution, and being diluted right before using.
(§4) When determining a ratio or content of the active ingredient A and the active ingredient B, it should be measured from characteristics of action of both agents and virulence thereof, as well as the main purpose of use of a formula shall also be considered in. In the present study, on a basis of previous pre-test, the dosages of the active ingredient A and the active ingredient B were set, when being used alone and mixed, as shown in the following table. Water containing no agent, but containing the same solvent and emulsifier was used as a blank control.
(§5) Repeat 4 times for each treatment, 3 pots per treatment each time and 30 weed seeds were sown for each pot.
(§6) Adopting an absolute number survey method, using a blade to cut the whole seedling of surviving weed along soil surface, and weighting the fresh weight of the weed with an analytical balance. For weeds that had died, counting the fresh weight as zero.
(§7) Survey period and frequency: 21 days after the treatment, total 1 investigation.
(§8) The theoretical fresh weight inhibition rate (E0-Expected Efficacy=[…]) of each treatment combination was calculated by Gowing method, and then compared with the measured inhibition rate (E-Observed Efficacy) to evaluate the combined effect type of both on weeds. When E-E0 value was greater than 10%, it was counted as a synergistic effect, less than −10%, it was counted as an antagonistic effect, and between −10%˜10%, it was counted as an additive effect. According to a plurality of factors including an actual control efficacy, a herbicide characteristic, a formula balance and other factors to determine the best ratio. In the formula, X is the fresh weight inhibition rate of the ingredient A at a dosage of P; Y is the fresh weight inhibition rate of the active ingredient B at a dosage of Q.
(§9) The statistical results are shown in Table 1 to Table 44 below, except for those marked clearly as “pre-emergence treatment”, all others are “post-emergence treatment”. […]

setaria viridis = assay: Indoor virulence and combined effect, greenhouse pot test, post-emergence stem and leaf spray, fresh weight inhibition; settings: for Fresh weight inhibition rate %, B single agent: Table 10; for inhibition at 750 g/ha: 750 g a.i./ha
Experimental: as §1
as §2, with “Following an experimental design dosage, a WP-2000 walking spray tower (spindle speed 96 mm/r, spray height 200 mm, effective spray amplitude of nozzle 350 mm, nozzle flow rate 390 mL/min, nozzle walking speed 210 mm/s) was used for the spray treatment.” left out, “method.” for “method. A reaction of weeds to the drug agent is observed and recorded, and a regularly visual check of a control effect of the drug agent on weeds was performed after the treatment.”
as §3, §4, §5, §6, §7
When E-E0 value was greater than 10%, it was counted as a synergistic effect, less than −10%, it was counted as an antagonistic effect, and between −10%˜10%, it was counted as an additive effect. […] In the formula, X is the fresh weight inhibition rate of the ingredient A at a dosage of P; Y is the fresh weight inhibition rate of the active ingredient B at a dosage of Q.

eclipta prostrata [1] = assay: Indoor virulence and combined effect, greenhouse pot test, pre-emergence soil spray treatment, fresh weight inhibition
Experimental: as §1, §2, §3, §4, §5, §6, §7, §8, §9

eleusine indica = assay: as above
Experimental: as §1, §2, §3, §4, §5, §6, §7, §8, §9

alopecurus japonicus = assay: Indoor virulence and combined effect, greenhouse pot test, post-emergence stem and leaf spray, fresh weight inhibition; settings: for inhibition at 25 g/ha: 25 g a.i./ha; for Fresh weight inhibition rate %, B single agent: Table 25
Experimental: as §1, §2, §3, §4, §5, §6, §7, §8, §9

eclipta prostrata [2] = assay: as above
Experimental: as §1, §2, §3, §4, §5, §6, §7, §8, §9

`CCOCN(C(=O)CCl)c1c(C)cccc1CC` [acetochlor] was tested, and the “Fresh weight inhibition rate %, B single agent” value (shortened to “Fresh weight inhibition rate %”) (digitaria sanguinalis; Table 40, B 250 g a.i./ha) was 55.88% and the “Fresh weight inhibition rate %” value (digitaria sanguinalis; Table 40, B 375 g a.i./ha) was 67.45%.
With `CC(C)c1ccc(NC(=O)N(C)C)cc1` [isoproturon] the “Fresh weight inhibition rate %” value (setaria viridis; B 400 g a.i./ha) was 22.19%, the “Fresh weight inhibition rate %” value (setaria viridis; B 495 g a.i./ha) was 23.26% and the “Fresh weight inhibition rate %” value (setaria viridis; B 600 g a.i./ha) was 33.26%.
For `CCc1cccc(C)c1N(C(=O)CCl)[C@@H](C)COC` [S-metolachlor], the “Fresh weight inhibition rate %” value (eclipta prostrata [1]; Table 28, B 300 g a.i./ha) was 45.64%, the “Fresh weight inhibition rate %” value (eclipta prostrata [1]; Table 28, B 450 g a.i./ha) was 57.41% and the “Fresh weight inhibition rate %” value (eclipta prostrata [1]; Table 28, B 600 g a.i./ha) was 61.78%. For the same compound, the “Fresh weight inhibition rate %” value (eclipta prostrata [1]; Table 28, B 750 g a.i./ha) was 70.72%.
`CCC(=O)Nc1ccc(Cl)c(Cl)c1` [propanil] was tested, and the inhibition at 500 g/ha (setaria viridis; Setaria viridis, 504 h, Table 6, 500 g a.i./ha, post-emergence, 21 days after treatment, read-out: Fresh weight inhibition rate %, B single agent) was 48.1%, the inhibition at 750 g/ha (setaria viridis; Setaria viridis, 504 h, Table 6, post-emergence, 21 days after treatment, read-out: Fresh weight inhibition rate %, B single agent) was 58.1% and the inhibition at 1000 g/ha (setaria viridis; Setaria viridis, 504 h, Table 6, 1000 g a.i./ha, post-emergence, 21 days after treatment, read-out: Fresh weight inhibition rate %, B single agent) was 69.1%.
For `CCCN(CCC)c1c([N+](=O)[O-])cc(C(F)(F)F)cc1[N+](=O)[O-]` [trifluralin], the “Fresh weight inhibition rate %” value (digitaria sanguinalis; Table 39, B 156.25 g a.i./ha) was 12.50%, the “Fresh weight inhibition rate %” value (digitaria sanguinalis; Table 39, B 250 g a.i./ha) was 48.67% and the “Fresh weight inhibition rate %” value (digitaria sanguinalis; Table 39, B 375 g a.i./ha) was 62.58%.
With `CCC(CC)Nc1c([N+](=O)[O-])cc(C)c(C)c1[N+](=O)[O-]` [pendimethalin] the “Fresh weight inhibition rate %” value (eleusine indica; Table 21, B 300 g a.i./ha) was 36.92% and the “Fresh weight inhibition rate %” value (eleusine indica; Table 21, B 375 g a.i./ha) was 54.44%.
In the case of `CCSC(C)CC1CC(=O)C(/C(CC)=N/OC/C=C/Cl)=C(O)C1` (centres unmarked) [clethodim], the inhibition at 25 g/ha (alopecurus japonicus; Alopecurus japonicus, 504 h, Table 5, post-emergence, 21 days after treatment, read-out: Fresh weight inhibition rate %, B single agent) is reported as 7.52%, the inhibition at 40 g/ha (alopecurus japonicus; Alopecurus japonicus, 504 h, Table 5, 40 g a.i./ha, post-emergence, 21 days after treatment, read-out: Fresh weight inhibition rate %, B single agent) is reported as 34.8% and the inhibition at 60 g/ha (alopecurus japonicus; Alopecurus japonicus, 504 h, Table 5, 60 g a.i./ha, post-emergence, 21 days after treatment, read-out: Fresh weight inhibition rate %, B single agent) is reported as 43%.
For `COC(=O)[C@@H](C)Oc1ccc(Oc2ncc(C(F)(F)F)cc2Cl)cc1` [haloxyfop-P-methyl], the “Fresh weight inhibition rate %” value (alopecurus japonicus; B 15 g a.i./ha) was 7.80%, the “Fresh weight inhibition rate %” value (alopecurus japonicus; B 25 g a.i./ha) was 15.29% and the “Fresh weight inhibition rate %” value (alopecurus japonicus; B 40 g a.i./ha) was 15.32%. The “Fresh weight inhibition rate %” value (alopecurus japonicus; B 60 g a.i./ha) was 27.52%.
With `Cc1cc(Cl)ccc1OCC(=O)[O-].[Na+]` [MCPA-sodium] the “Fresh weight inhibition rate %” value (eclipta prostrata [2]; Table 43, B 80 g a.i./ha) was 37.73% and the “Fresh weight inhibition rate %” value (eclipta prostrata [2]; Table 43, B 160 g a.i./ha) was 45.00%.
`CCc1cc(C)cc(CC)c1-c1c(OC(=O)C(C)(C)C)n2n(c1=O)CCOCC2` [pinoxaden] gave an inhibition at 15 g/ha (alopecurus japonicus; Alopecurus japonicus, 504 h, Table 7, 15 g a.i./ha, post-emergence, 21 days after treatment, read-out: Fresh weight inhibition rate %, B single agent) of 38.8%, an inhibition at 20 g/ha (alopecurus japonicus; Alopecurus japonicus, 504 h, Table 7, 20 g a.i./ha, post-emergence, 21 days after treatment, read-out: Fresh weight inhibition rate %, B single agent) of 42.3% and an inhibition at 25 g/ha (alopecurus japonicus; Alopecurus japonicus, 504 h, Table 7, post-emergence, 21 days after treatment, read-out: Fresh weight inhibition rate %, B single agent) of 58.7%.
`CCNc1nc(Cl)nc(NC(C)C)n1` [atrazine] showed an inhibition at 600 g/ha (setaria viridis; Setaria viridis, 504 h, Table 8, 600 g a.i./ha, post-emergence, 21 days after treatment, read-out: Fresh weight inhibition rate %, B single agent) of 26.1%, an inhibition at 750 g/ha (setaria viridis; Setaria viridis, 504 h, Table 8, post-emergence, 21 days after treatment, read-out: Fresh weight inhibition rate %, B single agent) of 33% and an inhibition at 800 g/ha (setaria viridis; Setaria viridis, 504 h, Table 8, 800 g a.i./ha, post-emergence, 21 days after treatment, read-out: Fresh weight inhibition rate %, B single agent) of 41.6%.
For `CCOC(=O)COC(=O)c1cc(Oc2ccc(C(F)(F)F)cc2Cl)ccc1[N+](=O)[O-]` [fluoroglycofen-ethyl], the “Fresh weight inhibition rate %” value (eclipta prostrata [2]; Table 12, B 8 g a.i./ha) was 11.99%, the “Fresh weight inhibition rate %” value (eclipta prostrata [2]; Table 12, B 16 g a.i./ha) was 27.44% and the “Fresh weight inhibition rate %” value (eclipta prostrata [2]; Table 12, B 20 g a.i./ha) was 42.03%.
